Key:
human ALX receptor = biological target: T1, human ALX receptor (Homo sapiens, UniProt P25090); experiment: Intracellular calcium measurements (FLIPR), ALX receptor agonistic activity; format: cell-based; settings: HEK293-hALXR-Gα16 cells; values normalized to WKYMVm 10 nM; read-out: EC50 (agonistic activity with respect to the ALX receptor)
T1 construct: expressed in transfected cells; host or cells: HEK293 (HEK293-hALXR-Gα16)
T1 sequence (P25090 1-351): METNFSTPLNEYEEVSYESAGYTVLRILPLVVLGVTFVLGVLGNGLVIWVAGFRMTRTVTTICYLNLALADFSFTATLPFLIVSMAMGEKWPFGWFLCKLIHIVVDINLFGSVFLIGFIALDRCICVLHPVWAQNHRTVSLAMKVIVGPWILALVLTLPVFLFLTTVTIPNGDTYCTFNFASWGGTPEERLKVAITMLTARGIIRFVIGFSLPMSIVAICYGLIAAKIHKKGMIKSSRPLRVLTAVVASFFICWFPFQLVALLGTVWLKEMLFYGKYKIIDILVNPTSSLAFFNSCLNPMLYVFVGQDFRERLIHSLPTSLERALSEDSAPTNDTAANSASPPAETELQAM
Description: The ALX receptor agonistic activities of the compounds of formula (I) are determined in accordance with the following experimental method.
Cells expressing recombinant human ALX receptor and the G-protein Gα16 (HEK293-hALXR-Gα16) were grown to 80% confluency in Growing Medium (GM). Cells were detached from culture dishes with a cell dissociation buffer (Invitrogen, 13151-014), and collected by centrifugation at 1′000 rpm at rt for 5 min in Assay Buffer (AB) (equal parts of Hank's BSS (Gibco, 14065-049) and DMEM without Phenol Red (Gibco, 11880-028)). After 60 min incubation at 37° C. under 5% CO2 in AB supplemented with 1 μM Fluo-4 (AM) (Invitrogen, F14202) and 20 mM HEPES (Gibco, 15630-056), the cells were washed and resuspended in AB. They were then seeded onto 384-well FLIPR assay plates (Greiner, 781091) at 50′000 cells in 70 μl per well and sedimented by centrifugation at 1′000 rpm for 1 min. Stock solutions of test compounds were made up at a concentration of 10 mM in DMSO, and serially diluted in AB to concentrations required for activation dose response curves. WKYMVm (Phoenix Peptides) was used as a reference agonist. A FLIPR Tetra instrument (Molecular Devices) was operated according to the manufacturer's standard instructions, adding 4 μl of test compound dissolved at 10 mM in DMSO and diluted prior to the experiment in assay buffer to obtain the desired final concentration. Changes in fluorescence were monitored before and after the addition of test compounds at lex=488 nm and lem=540 nm. Emission peak values above base level after compounds addition were exported after base line subtraction. Values were normalized to high-level control (WKYMVm compound, 10 nM final concentration) after subtraction of the base line value (AB addition).

[1] = Determination of pharmacokinetic parameters in rats after single oral or intravenous administration; format: in vivo; settings: Wistar, plasma, rat, p.o. 1 mg/kg; for bioavailability: oral, calculated with a reference AUC after iv administration of solutions at 1 mg/kg, read-out: F (bioavailability); for AUC: po, read-out: AUC (area under curve after p.o. administration)
Description: The goal of the study was to evaluate the pharmacokinetics of compounds after a single oral administration or after an intravenous route in normal, conscious rats.
• Anaesthesia: Wistar rats were pretreated with 0.03 mg/kg Buprenorphine s.c. (an analgesic-stock solution at 0.03 mg/ml) and 30 minutes later they were anaesthetized with a mixture of 90 mg/kg Ketamine and 10 mg/kg Xylazine i.p. or under Isoflurane inhalation anesthesia. • Rat preparation: The top of the head and the neck were shaved and disinfected with Merfen and Betadine. • Surgery: While under (isoflurane) anaesthesia, an incision was made above 1.5 cm at the top of the head (between the ears) in order to fix the anchor button. A second incision was made above 1.5-2 cm on the neck (near the right clavicle). A catheter (ID/DI: 0.508 mm, Ulrich Swiss) was tunnelled with a trocar under the skin and an access port was fixed with 4-0 silk. The catheter was then filled with a heparinized saline solution (100 Ul/ml), clamped with a hemostat to prevent loss of saline, and the wound was closed with tissue adhesive (3M Vetbond). Next, the jugular vein was isolated and ligated cranially with 4-0 silk, a second ligature, placed caudal to the first ligature, was not tightened. Using iridectomy scissors, a V-shaped hole was cut in the vein, and the catheter was gently pushed into the vessel. All ligatures were then tied around the vessel and the catheters. A NaCl-heparin 100 Ul flush was made to test the blood flow. The wound was then closed with tissue adhesive and a suture. Flush again. • Post operative care: After the operation each animal was housed separately in a small box with food (directly on the floor of the box) and water ad libitum and access to solid drink. One to two days were allowed for recovery from surgery prior to the experiment. The day following the operation, animals were flushed with NaCl-heparin 100 Ul/mL and blood collection tubes were prepared with 10 μl EDTA added to each tube. • Experiment: Tested compounds were given at 1 mg/kg orally and intravenously. The oral formulation was as a solution in Gelatine (98% of a 7.5% Gelatine solution in Water and 2% DMSO) and the intravenous formulation was a solution in water with pH adjustment or in cyclodextrine (5% DMSO, 95% HPBCD30% (w/v)). After application of the test-compound (p.o. or i.v.), blood samples ([…]) were taken at different times. The samples were immediately put in ice before being centrifuged (4° C., 8 min, 16000 g). The plasma was then aspirated and placed into a 96 well plate. The plate was kept at −20° C. until analysis could be performed. • Plasma concentration of the compound was determined using a LC-MS/MS method.

| SMILES | EC50 (human ALX receptor) [nM] | bioavailability [1] [%] | AUC [1] [ng·h/mL] |
| --- | --- | --- | --- |
| O=C(N[C@H]1CCNC[C@H]1F)[C@H]1[C@H](C(=O)NCc2ccc(Br)cc2F)[C@@H]2CC[C@H]1C21CC1 (mixture of isomers) [Example 4, (1S,2R,3R,4R)—N^2-(4-Bromo-2-fluorobenzyl)-N^3-(cis-3-fluoropiperidin-4-yl)spiro[bicyclo[2.2.1]heptane-7,1′-cyclopropane]-2,3-dicarboxamide] | 12.7 | – | – |
| O=C(N[C@@H]1CNC[C@@H]1F)[C@H]1[C@H](C(=O)NCc2ccc(Br)cc2F)[C@@H]2CC[C@H]1C21CC1 (mixture of isomers) [Example 5, (1S,2R,3R,4R)—N^2-(4-Bromo-2-fluorobenzyl)-N^3-(cis-4-fluoropyrrolidin-3-yl)spiro[bicyclo[2.2.1]heptane-7,1′-cyclopropane]-2,3-dicarboxamide] | 300 | – | – |
| O=C(N[C@@H]1CNC[C@H]1F)[C@H]1[C@H](C(=O)NCc2ccc(Br)cc2F)[C@@H]2CC[C@H]1C21CC1 (mixture of isomers) [Example 6, (1S,2R,3R,4R)—N^2-(4-Bromo-2-fluorobenzyl)-N^3-(trans-4-fluoropyrrolidin-3-yl)spiro[bicyclo[2.2.1]heptane-7,1′-cyclopropane]-2,3-dicarboxamide] | 4.5 | – | – |
| O=C(NC1CCNCC1(F)F)[C@H]1[C@H](C(=O)NCc2ccc(Br)cc2F)[C@@H]2CC[C@H]1C21CC1 (stereo partly drawn) [Example 1, (1S,2R,3R,4R)—N^2-(4-Bromo-2-fluorobenzyl)-N^3-(3,3-difluoropiperidin-4-yl)spiro[bicyclo[2.2.1]heptane-7,1′-cyclopropane]-2,3-dicarboxamide] | 41 | – | – |

Second part, the compound after the results:

| EC50 (human ALX receptor) [nM] | bioavailability [1] [%] | AUC [1] [ng·h/mL] | SMILES |
| --- | --- | --- | --- |
| 1.9 | – | – | O=C(N[C@@H]1CCNC[C@H]1F)[C@H]1[C@H](C(=O)NCc2ccc(Br)cc2F)[C@@H]2CC[C@H]1C21CC1 (single isomer, unassigned; diastereoisomer 1) [Example 2] |
| 2 | 12 | 49.9 | O=C(N[C@@H]1CCNC[C@H]1F)[C@H]1[C@H](C(=O)NCc2ccc(Br)cc2F)[C@@H]2CC[C@H]1C21CC1 (single isomer, unassigned; diastereoisomer 2) [Example 3] |
| – | 0.3 | 6.34 | O=C(NC1CCNCC1)[C@H]1[C@H](C(=O)NCc2ccc(Br)cc2F)[C@@H]2CC[C@H]1C21CC1 [Reference Example 2, (1S,2R,3R,4R)—N^2-(4-Bromo-2-fluorobenzyl)-N^3-(piperidin-4-yl)spiro[bicyclo[2.2.1]heptane-7,1′-cyclopropane]-2,3-dicarboxamide, reference compound] |

Source: patent US9139524B2, “Fluorinated bridged spiro[2.4]heptane derivatives as ALX receptor agonists” (Actelion Pharmaceuticals Ltd., priority 2012, dated 2015)
